Measured values reported in the NIST ThermoML archive (doi:10.1021/acs.jced.7b01035).
± gives the expanded uncertainty stated by the source.

Experiment: wn = mass fraction of the nth substance listed
Settings: 500 kPa, Liquid, Concentric cylinders viscometry

NCCCO [3-amino-1-propanol] + O
viscosity [mPa·s]
Settings	w1 = 0.1	w1 = 0.2	w1 = 0.3	w1 = 0.4	w1 = 0.5	w1 = 0.6	w1 = 0.7	w1 = 0.8	w1 = 0.9	w1 = 1
298.15 K	1.27 ± 0.32	1.84 ± 0.34	2.95 ± 0.42	4.76 ± 0.55	7.58 ± 0.8	12.17 ± 1.1	18.56 ± 1.4	26.23 ± 1.1	29.26 ± 0.53	30.43 ± 0.33
303.15 K	1.14 ± 0.32	1.62 ± 0.33	2.5 ± 0.38	3.97 ± 0.48	6.18 ± 0.64	9.64 ± 0.89	14.5 ± 1.2	20.98 ± 0.88	22.76 ± 0.43	23.87 ± 0.32
308.15 K	1.01 ± 0.31	1.41 ± 0.32	2.15 ± 0.36	3.34 ± 0.42	5.1 ± 0.53	7.69 ± 0.71	11.48 ± 0.86	15.73 ± 0.72	17.96 ± 0.46	19.07 ± 0.31
313.15 K	0.89 ± 0.31	1.25 ± 0.31	1.82 ± 0.34	2.82 ± 0.39	4.23 ± 0.46	6.25 ± 0.58	9.21 ± 0.7	12.52 ± 0.6	14.36 ± 0.41	15.27 ± 0.31
318.15 K	0.81 ± 0.31	1.12 ± 0.31	1.59 ± 0.33	2.42 ± 0.36	3.59 ± 0.41	5.17 ± 0.49	7.5 ± 0.58	10.09 ± 0.51	11.6 ± 0.38	12.36 ± 0.31
323.15 K	0.75 ± 0.3	1.01 ± 0.31	1.4 ± 0.32	2.11 ± 0.34	3.07 ± 0.37	4.34 ± 0.43	6.17 ± 0.49	8.24 ± 0.45	9.47 ± 0.36	10.22 ± 0.3
328.15 K	0.72 ± 0.3	0.92 ± 0.3	1.24 ± 0.31	1.86 ± 0.33	2.65 ± 0.35	3.69 ± 0.39	5.14 ± 0.43	6.81 ± 0.4	7.78 ± 0.35	8.54 ± 0.3
333.15 K	0.66 ± 0.3	0.84 ± 0.3	1.1 ± 0.31	1.66 ± 0.32	2.31 ± 0.34	3.17 ± 0.36	4.33 ± 0.39	5.68 ± 0.37	6.47 ± 0.33	7.12 ± 0.3
338.15 K	0.61 ± 0.3	0.76 ± 0.3	0.99 ± 0.31	1.47 ± 0.32	2.03 ± 0.33	2.74 ± 0.34	3.67 ± 0.36	4.79 ± 0.35	5.43 ± 0.33	6.05 ± 0.3
343.15 K	0.58	0.73 ± 0.3	0.9 ± 0.31	1.32 ± 0.31	1.81 ± 0.32	2.39 ± 0.33	3.15 ± 0.34	4.08 ± 0.33	4.61 ± 0.31	4.84 ± 0.3
348.15 K	0.57	0.7 ± 0.3	0.82 ± 0.3	1.2 ± 0.31	1.64 ± 0.31	2.09 ± 0.32	2.72 ± 0.33	3.51 ± 0.32	3.93 ± 0.31	4.17 ± 0.3
353.15 K	0.55	0.67 ± 0.3	0.75 ± 0.3	1.08 ± 0.31	1.46 ± 0.31	1.85 ± 0.31	2.37 ± 0.32	3.03 ± 0.32	3.39 ± 0.31	3.63 ± 0.3
358.15 K	0.41	0.54	0.69 ± 0.3	0.99 ± 0.31	1.32 ± 0.31	1.68 ± 0.31	2.09 ± 0.32	2.7 ± 0.31	2.93 ± 0.3	3.19 ± 0.3
363.15 K	0.39	0.49	0.65 ± 0.3	0.93 ± 0.31	1.25 ± 0.31	1.51 ± 0.31	1.86 ± 0.31	2.4 ± 0.31	2.56 ± 0.3	2.73 ± 0.3
368.15 K	0.37	0.47	0.63 ± 0.3	0.88 ± 0.3	1.16 ± 0.3	1.37 ± 0.3	1.66 ± 0.31	2.13 ± 0.31	2.24 ± 0.3	2.52 ± 0.3
373.15 K	0.35	0.44	0.59	0.82 ± 0.3	1.05 ± 0.3	1.26 ± 0.3	1.49 ± 0.31	1.91 ± 0.3	1.98 ± 0.3	2.25 ± 0.3
